Legend:
Type in all cases: cell-based
[1] = tested on: HeLa cells; experiment: Surface azide labeling of HeLa cells with AzNAM, DBCO-FAM fluorescence read in plate reader; settings: AzNAM 10-125 μM for 20 hours, then 10 μM DBCO-FAM for 1 hour
Protocol: Initially, cells were cultured in a suitable culture vessel such that their level of confluency at the time of addition of the azide-modified sugar, AzNAM, was not more than 80%.
In particular, HeLa cells were plated in 6-well plates (2.5×10^4 cells/well) and incubated for 48 hours in DMEM-10% FBS medium in a standard 5% CO2 atmosphere. Medium from each well was removed, and each well was washed with 2 ml of phosphate buffered saline (PBS), and fresh DMEM-FBS (1 ml) added. Subsequently, varying amounts of AzNAM (solubilized in DMSO) were added to the wells in small (10 μl) volumes to produce the desired final concentrations in the range 10-125 μM. After an additional 20 hours incubation, the medium in each well was removed, and the wells were washed with 2 ml of PBS, followed by addition of 1 ml of PBS. Then, a fluorescent azide reactive molecule, DBCO-FAM (Broadpharm), was directly added to each well to produce a final concentration of 10 μM.
Plates with added DBCO-FAM were protected from bright light and incubated for 1 hour at room temperature. Supernatants in each well were removed, and each well was washed twice with 2 ml of PBS. […] After pelleting and washing in PBS, cells were resuspended in 150 μl of PBS and counted. Defined numbers in 50 μl volumes in a 96-well Blackwell plate (Corning) were assayed for fluorescence in a fluorescent plate reader (Tecan).

[2] = tested on: HeLa cells; experiment: Surface azide labeling of HeLa cells with AzNAM, DBCO-FAM fluorescence by flow cytometry; settings: AzNAM 125 μM for 20 hours, versus cells receiving no azide-modified sugar
Protocol: In separate cultures, HeLa cells were added to wells of a 12-well plate at 10,000 cells/well, and cultured for 72 hours under normal conditions. The wells were washed with 1 ml of PBS, and 0.5 ml of DMEM-10% FBS was added. AzNAM was added to a final concentration of 125 μM, with cells receiving no azide-modified sugar as controls. After 20 hours, cells were harvested with CellStripper (250 μl/well), washed with PBS, and subjected to flow analysis.

[3] = tested on: Jurkat cells; experiment: Placement of trastuzumab mimotope on azide-modified cells, flow analysis; settings: AzNAM 100 μM for 24 hours
Protocol: (§1) Jurkat and HeLa cells were cultured for three days in their optimal media (RPMI-10% FBS/DMEM-10% FBS, respectively) in 6-well plates to reach a state of sub-confluency. AzNAM (from 100 mM DMSO stock) was added to designated wells to a […] of 100 μM. Control wells received equal volumes of DMSO only. After 24 hours, cells were harvested (directly for the non-adherent Jurkat cells, and with Cell Stripper reagent for HeLa cells), and washed in PBS. […] Cells treated with the DBCO-Jmim peptide were then subjected to standard staining with Trastuzumab (BioVision), followed by secondary staining with FITC-conjugated goat-anti-human kappa chain antibody. During the staining procedure, the control washed DBCO-FAM treated cells were kept on ice. Finally, all cells were subjected to flow cytometric analysis.

[4] = tested on: HeLa cells; experiment: as above; settings: AzNAM 100 μM for 24 hours
Protocol: as §1

[5] = then 10 μM DBCO-Jmim for 1 hour, trastuzumab plus FITC goat-anti-human kappa, versus DMSO controls

With azido-N-acetylmannosamine [AzNAM] the “cell-associated fluorescence (96-well plate format)” value [1] was “cell-associated fluorescence increased as a function of the levels of AzNAM”, the “flow analysis peak shift (DBCO-FAM fluorescence)” value [2] was “marked and well-demarcated peak shifts” and the “fluorescence after metabolic labeling and DBCO-FAM treatment (flow analysis)” value ([3]; then 10 μM DBCO-FAM for 1 hour) was “positive fluorescence”. The “staining with trastuzumab (flow analysis)” value [3, 5] was “strong staining with trastuzumab”, the “fluorescence after metabolic labeling and DBCO-FAM treatment (flow analysis)” value ([4]; then 10 μM DBCO-FAM for 1 hour) was “positive fluorescence” and the “staining with trastuzumab (flow analysis)” value [4, 5] was “strong staining with trastuzumab”.
